Laboratory results as given in ChEMBL document CHEMBL3046940, “Microwave-assisted synthesis of novel 4H-chromene derivatives bearing 2-aryloxyquinoline and their antimicrobial activity assessment” (2013).
Converted amounts (≈) assume the structure as drawn.

Assays:
Format in all cases: functional
Candida albicans = experiment: Antimicrobial activity against Candida albicans MTCC 227 assessed as growth inhibition after 24-48 hr by NCCLS broth microdilution method
Aspergillus fumigatus = experiment: Antimicrobial activity against Aspergillus fumigatus MTCC 3008 assessed as growth inhibition after 24-48 hr by NCCLS broth microdilution method
Vibrio cholerae = experiment: Antimicrobial activity against Vibrio cholerae MTCC 3906 assessed as growth inhibition after 24-48 hr by NCCLS broth microdilution method
Salmonella typhi = experiment: Antimicrobial activity against Salmonella enterica subsp. enterica serovar Typhi MTCC 98 assessed as growth inhibition after 24-48 hr by NCCLS broth microdilution method
Escherichia coli = experiment: Antimicrobial activity against Escherichia coli MTCC 443 assessed as growth inhibition after 24-48 hr by NCCLS broth microdilution method
Streptococcus pneumoniae = experiment: Antimicrobial activity against Streptococcus pneumoniae MTCC 1936 assessed as growth inhibition after 24-48 hr by NCCLS broth microdilution method
Clostridium tetani = experiment: Antimicrobial activity against Clostridium tetani MTCC 449 assessed as growth inhibition after 24-48 hr by NCCLS broth microdilution method
Bacillus subtilis = experiment: Antimicrobial activity against Bacillus subtilis MTCC 441 assessed as growth inhibition after 24-48 hr by NCCLS broth microdilution method

Compound | MIC (Candida albicans) | MIC (Aspergillus fumigatus) | MIC (Vibrio cholerae) | MIC (Salmonella typhi) | MIC (Escherichia coli) | MIC (Streptococcus pneumoniae) | MIC (Clostridium tetani) | MIC (Bacillus subtilis)
NYSTATIN | 100 µg/mL | 100 µg/mL |  |  |  |  |  | 
CCn1cc(C(=O)O)c(=O)c2cc(F)c(N3CCNCC3)cc21 [NORFLOXACIN] |  |  | 10 µg/mL (≈ 31.3 µM) | 10 µg/mL (≈ 31.3 µM) | 10 µg/mL (≈ 31.3 µM) | 10 µg/mL (≈ 31.3 µM) | 50 µg/mL (≈ 157 µM) | 100 µg/mL (≈ 313 µM)
Cc1ccc(Oc2nc3ccccc3cc2C2C(C#N)=C(N)OC3=C2C(=O)CCC3)cc1 (stereo not given) | 500 µg/mL (≈ 1180 µM) | 500 µg/mL (≈ 1180 µM) | 200 µg/mL (≈ 472 µM) | 500 µg/mL (≈ 1180 µM) | 250 µg/mL (≈ 590 µM) | 500 µg/mL (≈ 1180 µM) | 500 µg/mL (≈ 1180 µM) | 1000 µg/mL (≈ 2360 µM)
N#CC1=C(N)OC2=C(C(=O)CCC2)C1c1cc2ccccc2nc1Oc1ccc(F)cc1 (stereo not given) | 250 µg/mL (≈ 585 µM) | > 1000 µg/mL | 500 µg/mL (≈ 1170 µM) | 200 µg/mL (≈ 468 µM) | 100 µg/mL (≈ 234 µM) | 250 µg/mL (≈ 585 µM) | 500 µg/mL (≈ 1170 µM) | 250 µg/mL (≈ 585 µM)
COc1ccc2nc(Oc3ccc(F)cc3)c(C3C(C#N)=C(N)OC4=C3C(=O)CC(C)(C)C4)cc2c1 (stereo not given) | 500 µg/mL (≈ 1030 µM) | 500 µg/mL (≈ 1030 µM) | 250 µg/mL (≈ 515 µM) | 100 µg/mL (≈ 206 µM) | 62.5 µg/mL (≈ 129 µM) | 150 µg/mL (≈ 309 µM) | 200 µg/mL (≈ 412 µM) | 200 µg/mL (≈ 412 µM)
COc1ccc(Oc2nc3ccccc3cc2C2C(C#N)=C(N)OC3=C2C(=O)CCC3)cc1 (stereo not given) | 1000 µg/mL (≈ 2280 µM) | > 1000 µg/mL | 100 µg/mL (≈ 228 µM) | 250 µg/mL (≈ 569 µM) | 150 µg/mL (≈ 341 µM) | 100 µg/mL (≈ 228 µM) | 1000 µg/mL (≈ 2280 µM) | 200 µg/mL (≈ 455 µM)
COc1ccc2nc(Oc3ccc(C)cc3)c(C3C(C#N)=C(N)OC4=C3C(=O)CC(C)(C)C4)cc2c1 (stereo not given) | 1000 µg/mL (≈ 2080 µM) | 500 µg/mL (≈ 1040 µM) | 200 µg/mL (≈ 415 µM) | 100 µg/mL (≈ 208 µM) | 100 µg/mL (≈ 208 µM) | 500 µg/mL (≈ 1040 µM) | 100 µg/mL (≈ 208 µM) | 500 µg/mL (≈ 1040 µM)
CC1(C)S[C@@H]2[C@H](NC(=O)[C@H](N)c3ccccc3)C(=O)N2[C@H]1C(=O)O [AMPICILLIN] |  |  | 100 µg/mL (≈ 286 µM) | 100 µg/mL (≈ 286 µM) | 100 µg/mL (≈ 286 µM) | 100 µg/mL (≈ 286 µM) | 250 µg/mL (≈ 715 µM) | 250 µg/mL (≈ 715 µM)
COC1=CC(=O)C[C@@H](C)[C@]12Oc1c(Cl)c(OC)cc(OC)c1C2=O [GRISEOFULVIN] | 500 µg/mL (≈ 1420 µM) | 100 µg/mL (≈ 283 µM) |  |  |  |  |  | 
N#CC1=C(N)OC2=C(C(=O)CCC2)C1c1cc2ccccc2nc1Oc1ccccc1 (stereo not given) | 500 µg/mL (≈ 1220 µM) | 1000 µg/mL (≈ 2440 µM) | 250 µg/mL (≈ 611 µM) | 250 µg/mL (≈ 611 µM) | 100 µg/mL (≈ 244 µM) | 250 µg/mL (≈ 611 µM) | 250 µg/mL (≈ 611 µM) | 250 µg/mL (≈ 611 µM)
COc1ccc(Oc2nc3ccc(OC)cc3cc2C2C(C#N)=C(N)OC3=C2C(=O)CC(C)(C)C3)cc1 (stereo not given) | 250 µg/mL (≈ 502 µM) | 500 µg/mL (≈ 1000 µM) | 250 µg/mL (≈ 502 µM) | 250 µg/mL (≈ 502 µM) | 250 µg/mL (≈ 502 µM) | 1000 µg/mL (≈ 2010 µM) | 250 µg/mL (≈ 502 µM) | 1000 µg/mL (≈ 2010 µM)
COc1ccc2nc(Oc3ccccc3)c(C3C(C#N)=C(N)OC4=C3C(=O)CC(C)(C)C4)cc2c1 (stereo not given) | 500 µg/mL (≈ 1070 µM) | 1000 µg/mL (≈ 2140 µM) | 200 µg/mL (≈ 428 µM) | 500 µg/mL (≈ 1070 µM) | 200 µg/mL (≈ 428 µM) | 500 µg/mL (≈ 1070 µM) | 100 µg/mL (≈ 214 µM) | 500 µg/mL (≈ 1070 µM)
O=C(N[C@H](CO)[C@H](O)c1ccc([N+](=O)[O-])cc1)C(Cl)Cl [CHLORAMPHENICOL] |  |  | 50 µg/mL (≈ 155 µM) | 50 µg/mL (≈ 155 µM) | 50 µg/mL (≈ 155 µM) | 50 µg/mL (≈ 155 µM) | 50 µg/mL (≈ 155 µM) | 50 µg/mL (≈ 155 µM)
O=C(O)c1cn(C2CC2)c2cc(N3CCNCC3)c(F)cc2c1=O [CIPROFLOXACIN] |  |  | 25 µg/mL (≈ 75.4 µM) | 25 µg/mL (≈ 75.4 µM) | 25 µg/mL (≈ 75.4 µM) | 50 µg/mL (≈ 151 µM) |  | 
